According to patent US10315996B2, “ROR gamma (RORγ) modulators” (LEAD PHARMA HOLDING B.V., priority 2015, dated 2019):

Target: T1, RORγ (Homo sapiens, UniProt P51449)
T1 construct: expressed in transfected cells; host or cells: 293FT cells (Invitrogen), expression vector pFN26A (Promega)
T1 sequence (P51449 269-508 limits assumed): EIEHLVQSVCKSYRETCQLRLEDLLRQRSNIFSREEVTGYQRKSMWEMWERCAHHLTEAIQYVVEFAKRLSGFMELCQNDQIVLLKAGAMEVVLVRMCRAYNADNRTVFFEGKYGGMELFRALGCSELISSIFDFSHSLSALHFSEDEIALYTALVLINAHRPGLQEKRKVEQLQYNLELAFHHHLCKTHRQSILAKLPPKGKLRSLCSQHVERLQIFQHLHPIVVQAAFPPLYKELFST
Assay: RORγ GAL4 reporter gene assay
Assay type: cell-based
Conditions: inhibition of RORγ activity, GAL4-RORγ-LBD luciferase reporter in 293FT cells, overnight incubation; read-out: mean pIC50 (converted)
How it was run: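 293FT cells were transiently co-transfected with GAL4-DBD–RORγ-LBD (or GAL4-VP16 control) and a 9×UAS luc2P reporter, then plated at 60,000 cells/well. Compound was added at final 0.2% DMSO for 16-24 h at 37 °C, and inhibition was measured by firefly luciferase luminescence.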

Structure (SMILES): COc1ccccc1N(C)C(=O)c1ccc(NC(=O)Cc2ccc(S(=O)(=O)CC3CC3)cc2)cc1Cl [Example 125, 2-chloro-4-[2-(4-cyclopropylmethanesulfonylphenyl)acetamido]-N-(2-methoxyphenyl)-N-methylbenzamide]
- IC50: ≤ 10 nM

Structure (SMILES): CN(C(=O)c1ccc(NC(=O)Cc2ccc(S(=O)(=O)CC3CC3)cc2)cc1F)c1ccccc1F [Example 126, 4-[2-(4-cyclopropylmethanesulfonylphenyl)acetamido]-2-fluoro-N-(2-fluorophenyl)-N-methylbenzamide]
- IC50: ≤ 10 nM

Structure (SMILES): CN(C(=O)c1ccc(NC(=O)Cc2ccc(S(=O)(=O)CC3CC3)cc2)cc1Cl)c1ccccc1F [Example 127, 2-chloro-4-[2-(4-cyclopropylmethanesulfonylphenyl)acetamido]-N-(2-fluorophenyl)-N-methylbenzamide]
- IC50: ≤ 10 nM

Structure (SMILES): CCN(C(=O)c1ccc(NC(=O)Cc2ccc(S(=O)(=O)CC3CC3)cc2)cc1Cl)c1ccccc1Cl [Example 128, 2-chloro-N-(2-chlorophenyl)-4-[2-(4-cyclopropylmethanesulfonylphenyl)acetamido]-N-ethylbenzamide]
- IC50: ≤ 10 nM

Structure (SMILES): CCN(C(=O)c1ccc(NC(=O)Cc2ccc(S(=O)(=O)CC3CC3)cc2)cc1Cl)c1ccccc1C [Example 129, 2-chloro-4-[2-(4-cyclopropylmethanesulfonylphenyl)acetamido]-N-ethyl-N-(2-methylphenyl)benzamide]
- IC50: ≤ 10 nM

Structure (SMILES): CC(C)(C)N(C(=O)c1ccc(NC(=O)Cc2ccc(S(=O)(=O)CC3CC3)cc2)cc1)c1ccccc1 [Example 130, N-tert-butyl-4-[2-(4-cyclopropylmethanesulfonylphenyl)acetamido]-N-phenylbenzamide]
- IC50: ≤ 10 nM

Structure (SMILES): CC(C)(C)N(C(=O)c1ccc(NC(=O)Cc2ccc(S(=O)(=O)NC3CC3)cc2)cc1)c1ccccc1 [Example 131, N-tert-butyl-4-{2-[4-(cyclopropylsulfamoyl)phenyl]acetamido}-N-phenylbenzamide]
- IC50: ≤ 10 nM

Structure (SMILES): Cc1ccc(N(C(=O)c2ccc(NC(=O)Cc3ccc(S(=O)(=O)NC4CC4)cc3)cc2)C(C)(C)C2CCCO2)cc1 (centres unmarked) [Example 132, 4-{2-[4-(cyclopropylsulfamoyl)phenyl]acetamido}-N-(4-methylphenyl)-N-[2-(oxolan-2-yl)propan-2-yl]benzamide]
- IC50: ≤ 100 nM

Structure (SMILES): Cc1ccc(N(C(=O)c2ccc(NC(=O)Cc3ccc(S(=O)(=O)CC4CC4)cc3)cc2)C(C)(C)C2CCCO2)cc1 (centres unmarked) [Example 133, 4-[2-(4-cyclopropylmethanesulfonylphenyl)acetamido]-N-(4-methylphenyl)-N-[2-(oxolan-2-yl)propan-2-yl]benzamide]
- IC50: ≤ 100 nM

Structure (SMILES): CC(C)(C)N(C(=O)c1ccc(NC(=O)Cc2ccc(S(=O)(=O)CC3CC3)cc2)c(F)c1)c1ccccc1 [Example 134, N-tert-butyl-4-[2-(4-cyclopropylmethanesulfonylphenyl)acetamido]-3-fluoro-N-phenylbenzamide]
- IC50: ≤ 10 nM

Structure (SMILES): CC(C)(C1CCCO1)N(C(=O)c1ccc(NC(=O)Cc2ccc(S(=O)(=O)CC3CC3)cc2)cc1)c1ccccc1 (centres unmarked) [Example 135, 4-[2-(4-cyclopropylmethanesulfonylphenyl)acetamido]-N-[2-(oxolan-2-yl)propan-2-yl]-N-phenylbenzamide]
- IC50: ≤ 100 nM

Structure (SMILES): O=C(Cc1ccc(S(=O)(=O)CC2CC2)cc1)Nc1ccc(C(=O)N(c2ccccn2)C2CCOC2)cc1 (centres unmarked) [Example 136, 4-[2-(4-cyclopropylmethanesulfonylphenyl)acetamido]-N-(oxolan-3-yl)-N-(pyridin-2-yl)benzamide]
- IC50: ≤ 100 nM

Structure (SMILES): O=C(Cc1ccc(S(=O)(=O)CC2CC2)cc1)Nc1ccc(C(=O)N(c2ccccn2)C2CC2)cc1 [Example 137, N-cyclopropyl-4-[2-(4-cyclopropylmethanesulfonylphenyl)acetamido]-N-(pyridin-2-yl)benzamide]
- IC50: ≤ 100 nM

Structure (SMILES): CC(C)(CO)N(C(=O)c1ccc(NC(=O)Cc2ccc(S(=O)(=O)CC3CC3)cc2)cc1)c1ccccc1 [Example 138, 4-[2-(4-cyclopropylmethanesulfonylphenyl)acetamido]-N-(1-hydroxy-2-methylpropan-2-yl)-N-phenylbenzamide]
- IC50: ≤ 100 nM

Structure (SMILES): O=C(Cc1ccc(S(=O)(=O)CC2CC2)cc1)Nc1ccc(C(=O)N(c2ccccn2)C2CCC2)cc1 [Example 139, N-cyclobutyl-4-[2-(4-cyclopropylmethanesulfonylphenyl)acetamido]-N-(pyridin-2-yl)benzamide]
- IC50: ≤ 10 nM

Structure (SMILES): O=C(Cc1ccc(S(=O)(=O)CC2CC2)cc1)Nc1ccc(C(=O)N(c2ccccc2)C2CC2)cc1 [Example 140, N-cyclopropyl-4-[2-(4-cyclopropylmethanesulfonylphenyl)acetamido]-N-phenylbenzamide]
- IC50: ≤ 10 nM

Structure (SMILES): O=C(Cc1ccc(S(=O)(=O)CC2CC2)cc1)Nc1ccc(C(=O)N(c2ccccc2)C2CCC2)cc1 [Example 141, N-cyclobutyl-4-[2-(4-cyclopropylmethanesulfonylphenyl)acetamido]-N-phenylbenzamide]
- IC50: ≤ 10 nM

Structure (SMILES): CC1(N(C(=O)c2ccc(NC(=O)Cc3ccc(S(=O)(=O)CC4CC4)cc3)cc2)c2ccccc2)CC1 [Example 142, 4-[2-(4-cyclopropylmethanesulfonylphenyl)acetamido]-N-(1-methylcyclopropyl)-N-phenylbenzamide]
- IC50: ≤ 10 nM

Structure (SMILES): O=C(Cc1ccc(S(=O)(=O)CC2CC2)cc1)Nc1ccc(C(=O)N(c2cccnc2)C2CC2)cc1 [Example 143, N-cyclopropyl-4-[2-(4-cyclopropylmethanesulfonylphenyl)acetamido]-N-(pyridin-3-yl)benzamide]
- IC50: ≤ 100 nM

Structure (SMILES): O=C(Cc1ccc(S(=O)(=O)CC2CC2)cc1)Nc1ccc(C(=O)N(c2ccccc2)C2CC(F)(F)C2)cc1 [Example 144, 4-[2-(4-cyclopropylmethanesulfonylphenyl)acetamido]-N-(3,3-difluorocyclobutyl)-N-phenylbenzamide]
- IC50: ≤ 10 nM

Structure (SMILES): COC(=O)C(C)(C)N(C(=O)c1ccc(NC(=O)Cc2ccc(S(=O)(=O)CC3CC3)cc2)cc1)c1ccccc1 [Example 145, methyl 2-(1-{4-[2-(4-cyclopropylmethanesulfonylphenyl)acetamido]phenyl}-N-phenylformamido)-2-methylpropanoate]
- IC50: ≤ 10 nM

Structure (SMILES): CC(N(C(=O)c1ccc(NC(=O)Cc2ccc(S(=O)(=O)CC3CC3)cc2)cc1)c1ccccc1)C(F)(F)F (centres unmarked) [Example 146, 4-[2-(4-cyclopropylmethanesulfonylphenyl)acetamido]-N-phenyl-N-(1,1,1-trifluoropropan-2-yl)benzamide]
- IC50: ≤ 10 nM

Structure (SMILES): O=C(Cc1ccc(S(=O)(=O)CC2CC2)cc1)Nc1ccc(C(=O)Nc2c(Cl)cccc2Cl)cc1 [Example 147, 4-[2-(4-cyclopropylmethanesulfonylphenyl)acetamido]-N-(2,6-dichlorophenyl)benzamide]
- IC50: ≤ 1000 nM

Structure (SMILES): CC(N(C(=O)c1ccc(NC(=O)Cc2ccc(S(=O)(=O)NC3CC3)cc2)cc1)c1ccccc1)C(F)(F)F (centres unmarked) [Example 148, 4-{2-[4-(cyclopropylsulfamoyl)phenyl]acetamido}-N-phenyl-N-(1,1,1-trifluoropropan-2-yl)benzamide]
- IC50: ≤ 100 nM

Structure (SMILES): O=C(Cc1ccc(S(=O)(=O)CC2CC2)cc1)Nc1ccc(C(=O)N(c2ccccc2)C2COC2)cc1 [Example 149, 4-[2-(4-cyclopropylmethanesulfonylphenyl)acetamido]-N-(oxetan-3-yl)-N-phenylbenzamide]
- IC50: ≤ 10 nM

Structure (SMILES): Cc1ccc(N(C(=O)c2ccc(NC(=O)Cc3ccc(S(=O)(=O)CC4CC4)cc3)cc2)C(C)(C)CO)cc1 [Example 153, 4-[2-(4-cyclopropylmethanesulfonylphenyl)acetamido]-N-(1-hydroxy-2-methylpropan-2-yl)-N-(4-methylphenyl)benzamide]
- IC50: ≤ 100 nM

Structure (SMILES): Cc1ccc(N(C(=O)c2ccc(NC(=O)Cc3ccc(S(=O)(=O)NC4CC4)cc3)cc2)C(C)(C)CO)cc1 [Example 154, 4-{2-[4-(cyclopropylsulfamoyl)phenyl]acetamido}-N-(1-hydroxy-2-methylpropan-2-yl)-N-(4-methylphenyl)benzamide]
- IC50: ≤ 100 nM

Structure (SMILES): O=C(Cc1ccc(S(=O)(=O)CC2CC2)nc1)Nc1ccc(C(=O)N(CC(F)(F)F)c2ccccc2)cc1 [Example 155, 4-[2-(6-cyclopropylmethanesulfonylpyridin-3-yl)acetamido]-N-phenyl-N-(2,2,2-trifluoroethyl)benzamide]
- IC50: ≤ 10 nM

Structure (SMILES): CCN(C(=O)c1ccc(NC(=O)Cc2ccc(S(=O)(=O)CC3CC3)nc2)cc1F)c1ccccc1 [Example 156, 4-[2-(6-cyclopropylmethanesulfonylpyridin-3-yl)acetamido]-N-ethyl-2-fluoro-N-phenylbenzamide]
- IC50: ≤ 100 nM

Structure (SMILES): CCN(C(=O)c1ccc(NC(=O)Cc2ccc(S(=O)(=O)CC3CC3)nc2)cc1Cl)c1ccccc1 [Example 157, 2-chloro-4-[2-(6-cyclopropylmethanesulfonylpyridin-3-yl)acetamido]-N-ethyl-N-phenylbenzamide]
- IC50: ≤ 100 nM

Structure (SMILES): CC(C)(C)N(C(=O)c1ccc(NC(=O)Cc2ccc(S(=O)(=O)CC3CC3)nc2)cc1)c1ccccc1 [Example 158, N-tert-butyl-4-[2-(6-cyclopropylmethanesulfonylpyridin-3-yl)acetamido]-N-phenylbenzamide]
- IC50: ≤ 10 nM

Structure (SMILES): CC(C)(C)N(C(=O)c1ccc(NC(=O)Cc2ccc(S(=O)(=O)CC3CC3)nc2)c(F)c1)c1ccccc1 [Example 159, N-tert-butyl-4-[2-(6-cyclopropylmethanesulfonylpyridin-3-yl)acetamido]-3-fluoro-N-phenylbenzamide]
- IC50: ≤ 10 nM
